{
  "source": "patent US20180044428A1",
  "about": "“COMPOSITIONS AND METHODS FOR ENHANCING THE EFFICACY OF CANCER THERAPY” (PROVIDENCE HEALTH & SERVICES-OREGON, priority 2015, published 2018)",
  "type_in_all_cases": "in vivo, C57BL/6 mice",
  "key": {"Panc02 tumors": {"system": "Panc02 tumors", "assay": "Panc02 pancreatic adenocarcinoma model, immunochemotherapy (tumor area, survival)", "conditions": "gemcitabine 100 mg/kg i.p. twice weekly alone", "description": "The Panc02 murine pancreatic adenocarcinoma cell line (Priebe et al., 1992, Cancer Chemother Pharmacol; 29:485-9. C57BL/6) was kindly provided by Dr. Woo (Mount Sinai School of Medicine, N.Y.). 6-8 week old C57BL/6 mice were obtained from Charles River Laboratories (Wilmington, Mass.) for use in these experiments. All animal protocols were approved by the EACRI IACUC (Animal Welfare Assurance No. A3913-01).\nMice bearing 10-14 day old tumors were treated with anti-OX40 (OX86, 250 μg intraperitoneally, BioXcell, West Lebanon, N.H.), anti-CTLA4 (9D9, 250 μg intraperitoneally, BioXcell) or the combination. Chemotherapy consisted of 100 mg/kg Gemcitabine (Eli Lilly and Co., Indianapolis, Ind.) intraperitoneally twice per week for 2 or 3 weeks. Anti-interleukin-4 (Anti-IL-4, 11B11, 100 μg intraperitoneally, BioXcell) was delivered intraperitoneally twice per week for 3 weeks.\nData were analyzed and graphed using Prism (GraphPad Software, La Jolla, Calif.). Individual data sets were compared using Student's T-test. Analysis across multiple groups was performed using ANOVA with individual groups assessed using Tukey's comparison. Kaplan Meier survival curves were compared using a log-rank test."}, "F4/80+ macrophages": {"system": "F4/80+ macrophages", "assay": "Immunohistology for F4/80+ macrophages in Panc02 tumors", "conditions": "gemcitabine, tumors harvested after one week of treatment", "description": "For immunohistology, tumors were fixed overnight in Z7 zinc based fixative (Lykidis et al., 2007, Nucleic acids research; 35:e85). Tissue was then dehydrated through graded alcohol to xylene, incubated in molten paraffin, and then buried in paraffin. Sections (5 μm) were cut and mounted for analysis. Tissue sections were boiled in ethylenediaminetetraacetic acid (EDTA) buffer as appropriate for antigen retrieval. Primary antibody binding was visualized with AlexaFluor 488 conjugated secondary antibodies (Molecular Probes, Eugene, Oreg.) and mounted with DAPI (Invitrogen) to stain nuclear material. Images were acquired using: a Nikon TE2000S epifluorescence microscope, Nikon DsFi1 digital camera and Nikon NIS-Elements imaging software. Multiple images were taken at high resolution across the tumor and digitally merged to make a single margin-to-margin overview of the tumor."}, "[1]": {"system": "peripheral blood immune cells", "assay": "Quantitative flow cytometry of peripheral blood after immunochemotherapy", "description": "For analysis of tumor-infiltrating cells, the tumor was dissected into approximately 2 mm fragments followed by agitation in lmg/mL collagenase (Invitrogen), 100μg/mL hyaluronidase (Sigma, St Louis, Mo.), and 20 mg/mL DNase (Sigma) in PBS for 1 hour at room temperature. The digest was filtered through 100 μm nylon mesh to remove macroscopic debris. For flow cytometry analysis of infiltrating cells, cell suspensions were washed and stained with directly conjugated fluorescent antibodies. For analysis of lymph nodes, lymph nodes were crushed, washed and surface stained, then cells were washed and fixed using a T regulatory cell staining kit (EBioscience) and stained for transcription factors. To measure cytokine responses, lymph node cells were plated to wells pre-coated with 1 μg/ml anti-CD3 for 4 hours in the presence of Golgiplug (BD biosciences). Cells were then surface stained, washed and fixed using a T regulatory cell staining kit (EBioscience) before intracellular cytokine staining. For analysis of cell numbers in blood, whole blood was harvested into ethylenediaminetetraacetic acid (EDTA) tubes from live mice via the saphenous vein, and 5-25 μl of fresh blood was stained directly with fluorescent antibody cocktails (see, Crittenden et al., PLoS One, 2013. 8(7): e69527). A known number of AccuCheck fluorescent beads (Invitrogen) were added to each sample, then red blood cells were lysed with Cal-Lyse whole blood lysing solution (Invitrogen), and samples analyzed on a BD LSRII flow cytometer. The absolute number of cells in the sample was determined based on comparing cellular events to bead events (cells/μl)."}, "[2]": {"conditions": "following one cycle of chemoimmunotherapy"}},
  "data": [
    {"smiles": "Nc1ccn([C@@H]2O[C@H](CO)[C@@H](O)C2(F)F)c(=O)n1", "note": "[gemcitabine]", "values": [
      {"measurement": "survival", "setting": "Panc02 tumors", "value": "significantly extended survival"},
      {"measurement": "tumor growth", "setting": "Panc02 tumors", "value": "transient tumor delay"},
      {"measurement": "macrophage infiltration throughout the tumor", "setting": "F4/80+ macrophages", "value": "increased"},
      {"measurement": "T cell populations in peripheral blood", "setting": "[1]; following chemotherapy", "value": "not decreased"},
      {"measurement": "CD11b+Gr1hi neutrophils in the peripheral blood", "setting": "[1]; [2]", "value": "significantly decreased"},
      {"measurement": "CD11b+Ly6C+Ly6Glo immature myeloid cells in the peripheral blood", "setting": "[1]; [2]", "value": "significantly decreased"}
    ]}
  ]
}
